This is an account of results in the supplement of paper PMC10307832.

The first experiment deals with NCI-H596. As to the kind of experiment: relative viability (nuclei count vs DMSO), 5 days (fraction); higher = more cells survive. The settings on record: first compound 4 µM. The procedure, abridged: (§1)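 Each reported value is a median over duplicate plates. It expresses relative viability: treated-well nuclei count divided by vehicle-well nuclei count. Lung cancer cell lines in 1536-well plates were dosed by pin tool a day after seeding, alone with one drug or with a fixed anchor-drug dose plus five library-drug doses (not always all listed) in √10 steps, and nuclei were counted after 5 days.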
As to `Clc1ccc(Nc2nnc(Cc3ccncc3)c3ccccc23)cc1` [Vatalanib] + N=C(N)NC(=N)NCCc1ccccc1 [Phenformin] (partner 250 µM), the relative viability was determined as 0.662.
Still for that read-out and setting: the figure for `Clc1ccc(Nc2nnc(Cc3ccncc3)c3ccccc23)cc1` [Vatalanib] + Nc1nc2[nH]cc(CCc3ccc(C(=O)N[C@@H](CCC(=O)O)C(=O)O)cc3)c2c(=O)[nH]1 [Pemetrexed] (partner 0.2 µM) is 0.47.

For a further experiment, the system named is SW 900. The description is as above. The settings on record: first compound 0.04 µM. The procedure, abridged: as §1
For `COc1cc(N2CCC(C(N)=O)CC2)ccc1Nc1nc(N)c(Cl)c(Nc2ccccc2S(=O)(=O)C(C)C)n1` [HG-5-88-01] + N=C(N)NC(=N)NCCc1ccccc1 [Phenformin] (partner 250 µM), the relative viability stood at 0.592.
Still for that read-out and setting: the figure for `Clc1ccc(Nc2nnc(Cc3ccncc3)c3ccccc23)cc1` [Vatalanib] + Nc1nc2[nH]cc(CCc3ccc(C(=O)N[C@@H](CCC(=O)O)C(=O)O)cc3)c2c(=O)[nH]1 [Pemetrexed] (partner 0.2 µM) is 0.476.

Still in this experiment, the particulars now being: first compound 0.1265 µM.
Compound `COc1cc(N2CCC(C(N)=O)CC2)ccc1Nc1nc(N)c(Cl)c(Nc2ccccc2S(=O)(=O)C(C)C)n1` [HG-5-88-01] + N=C(N)NC(=N)NCCc1ccccc1 [Phenformin] (partner 250 µM) returned a relative viability of 0.545.
On the same count and under the same terms, next, `Clc1ccc(Nc2nnc(Cc3ccncc3)c3ccccc23)cc1` [Vatalanib] + COc1cccc2cc(-c3nc([C@H]4CC[C@H](C(=O)O)CC4)n4ncnc(N)c34)[nH]c12 [OSI-027] (partner 0.5 µM): 0.531.
As to `Clc1ccc(Nc2nnc(Cc3ccncc3)c3ccccc23)cc1` [Vatalanib] + N=C(N)NC(=N)NCCc1ccccc1 [Phenformin] (partner 250 µM), the relative viability came to 0.689.
The same measure, in the same setting: the figure for `Clc1ccc(Nc2nnc(Cc3ccncc3)c3ccccc23)cc1` [Vatalanib] + Nc1nc2[nH]cc(CCc3ccc(C(=O)N[C@@H](CCC(=O)O)C(=O)O)cc3)c2c(=O)[nH]1 [Pemetrexed] (partner 0.2 µM) is 0.471.

The experiment is the same for the next values; noted with them: first compound 0.4 µM.
`COc1cc(N2CCC(C(N)=O)CC2)ccc1Nc1nc(N)c(Cl)c(Nc2ccccc2S(=O)(=O)C(C)C)n1` [HG-5-88-01] + N=C(N)NC(=N)NCCc1ccccc1 [Phenformin] (partner 250 µM) displayed a relative viability of 0.622.
Same read-out and setting: next, `Clc1ccc(Nc2nnc(Cc3ccncc3)c3ccccc23)cc1` [Vatalanib] + COc1cccc2cc(-c3nc([C@H]4CC[C@H](C(=O)O)CC4)n4ncnc(N)c34)[nH]c12 [OSI-027] (partner 0.5 µM): 0.565; `Clc1ccc(Nc2nnc(Cc3ccncc3)c3ccccc23)cc1` [Vatalanib] + N=C(N)NC(=N)NCCc1ccccc1 [Phenformin] (partner 250 µM): 0.539; `Clc1ccc(Nc2nnc(Cc3ccncc3)c3ccccc23)cc1` [Vatalanib] + Nc1nc2[nH]cc(CCc3ccc(C(=O)N[C@@H](CCC(=O)O)C(=O)O)cc3)c2c(=O)[nH]1 [Pemetrexed] (partner 0.2 µM): 0.467.

Still in this experiment, the particulars now being: first compound 1.265 µM.
In the case of `COc1cc(N2CCC(C(N)=O)CC2)ccc1Nc1nc(N)c(Cl)c(Nc2ccccc2S(=O)(=O)C(C)C)n1` [HG-5-88-01] + N=C(N)NC(=N)NCCc1ccccc1 [Phenformin] (partner 250 µM), the relative viability was 0.671.
On the same count and under the same terms, next, `Clc1ccc(Nc2nnc(Cc3ccncc3)c3ccccc23)cc1` [Vatalanib] + COc1cccc2cc(-c3nc([C@H]4CC[C@H](C(=O)O)CC4)n4ncnc(N)c34)[nH]c12 [OSI-027] (partner 0.5 µM): 0.618; `Clc1ccc(Nc2nnc(Cc3ccncc3)c3ccccc23)cc1` [Vatalanib] + N=C(N)NC(=N)NCCc1ccccc1 [Phenformin] (partner 250 µM): 0.458.
As to `Clc1ccc(Nc2nnc(Cc3ccncc3)c3ccccc23)cc1` [Vatalanib] + Nc1nc2[nH]cc(CCc3ccc(C(=O)N[C@@H](CCC(=O)O)C(=O)O)cc3)c2c(=O)[nH]1 [Pemetrexed] (partner 0.2 µM), the relative viability came to 0.478.

Still in this experiment, the particulars now being: first compound 4 µM.
Consider `COc1cc(N2CCC(C(N)=O)CC2)ccc1Nc1nc(N)c(Cl)c(Nc2ccccc2S(=O)(=O)C(C)C)n1` [HG-5-88-01] + N=C(N)NC(=N)NCCc1ccccc1 [Phenformin] (partner 250 µM), for which the relative viability was determined as 0.408.
Still for that read-out and setting: the figure for `Clc1ccc(Nc2nnc(Cc3ccncc3)c3ccccc23)cc1` [Vatalanib] + COc1cccc2cc(-c3nc([C@H]4CC[C@H](C(=O)O)CC4)n4ncnc(N)c34)[nH]c12 [OSI-027] (partner 0.5 µM) is 0.501.
Still for that read-out and setting: the figure for `Clc1ccc(Nc2nnc(Cc3ccncc3)c3ccccc23)cc1` [Vatalanib] + N=C(N)NC(=N)NCCc1ccccc1 [Phenformin] (partner 250 µM) is 0.544.
On to `Clc1ccc(Nc2nnc(Cc3ccncc3)c3ccccc23)cc1` [Vatalanib] + Nc1nc2[nH]cc(CCc3ccc(C(=O)N[C@@H](CCC(=O)O)C(=O)O)cc3)c2c(=O)[nH]1 [Pemetrexed] (partner 0.2 µM), for which the relative viability worked out at 0.464.

For a further experiment, the system named is LK-2. The description is as above. The settings on record: first compound 0.04 µM. An outline of the steps:
as §1
The compound `COc1cc(N2CCC(C(N)=O)CC2)ccc1Nc1nc(N)c(Cl)c(Nc2ccccc2S(=O)(=O)C(C)C)n1` [HG-5-88-01] + N=C(N)NC(=N)NCCc1ccccc1 [Phenformin] (partner 250 µM) showed a relative viability of 0.516.
The same measure, in the same setting: next, `Clc1ccc(Nc2nnc(Cc3ccncc3)c3ccccc23)cc1` [Vatalanib] + COc1cccc2cc(-c3nc([C@H]4CC[C@H](C(=O)O)CC4)n4ncnc(N)c34)[nH]c12 [OSI-027] (partner 0.5 µM): 0.211; `Clc1ccc(Nc2nnc(Cc3ccncc3)c3ccccc23)cc1` [Vatalanib] + N=C(N)NC(=N)NCCc1ccccc1 [Phenformin] (partner 250 µM): 0.408; `Clc1ccc(Nc2nnc(Cc3ccncc3)c3ccccc23)cc1` [Vatalanib] + Nc1nc2[nH]cc(CCc3ccc(C(=O)N[C@@H](CCC(=O)O)C(=O)O)cc3)c2c(=O)[nH]1 [Pemetrexed] (partner 0.2 µM): 0.241.

Still in this experiment, the particulars now being: first compound 0.1265 µM.
With `COc1cc(N2CCC(C(N)=O)CC2)ccc1Nc1nc(N)c(Cl)c(Nc2ccccc2S(=O)(=O)C(C)C)n1` [HG-5-88-01] + N=C(N)NC(=N)NCCc1ccccc1 [Phenformin] (partner 250 µM), the relative viability was found to be 0.394.
Same read-out and setting: the figure for `Clc1ccc(Nc2nnc(Cc3ccncc3)c3ccccc23)cc1` [Vatalanib] + COc1cccc2cc(-c3nc([C@H]4CC[C@H](C(=O)O)CC4)n4ncnc(N)c34)[nH]c12 [OSI-027] (partner 0.5 µM) is 0.208; for `Clc1ccc(Nc2nnc(Cc3ccncc3)c3ccccc23)cc1` [Vatalanib] + N=C(N)NC(=N)NCCc1ccccc1 [Phenformin] (partner 250 µM) it is 0.398; for `Clc1ccc(Nc2nnc(Cc3ccncc3)c3ccccc23)cc1` [Vatalanib] + Nc1nc2[nH]cc(CCc3ccc(C(=O)N[C@@H](CCC(=O)O)C(=O)O)cc3)c2c(=O)[nH]1 [Pemetrexed] (partner 0.2 µM) it is 0.252.

The experiment is the same for the next values; noted with them: first compound 0.4 µM.
`COc1cc(N2CCC(C(N)=O)CC2)ccc1Nc1nc(N)c(Cl)c(Nc2ccccc2S(=O)(=O)C(C)C)n1` [HG-5-88-01] + N=C(N)NC(=N)NCCc1ccccc1 [Phenformin] (partner 250 µM) yielded a relative viability of 0.176.
